Assay type in all cases: cell-based
In one assay the target is T1, NPY2R (Homo sapiens, UniProt P49146).
T1 construct: expressed in transfected cells; host or cells: CHO
T1 sequence (P49146 1-381): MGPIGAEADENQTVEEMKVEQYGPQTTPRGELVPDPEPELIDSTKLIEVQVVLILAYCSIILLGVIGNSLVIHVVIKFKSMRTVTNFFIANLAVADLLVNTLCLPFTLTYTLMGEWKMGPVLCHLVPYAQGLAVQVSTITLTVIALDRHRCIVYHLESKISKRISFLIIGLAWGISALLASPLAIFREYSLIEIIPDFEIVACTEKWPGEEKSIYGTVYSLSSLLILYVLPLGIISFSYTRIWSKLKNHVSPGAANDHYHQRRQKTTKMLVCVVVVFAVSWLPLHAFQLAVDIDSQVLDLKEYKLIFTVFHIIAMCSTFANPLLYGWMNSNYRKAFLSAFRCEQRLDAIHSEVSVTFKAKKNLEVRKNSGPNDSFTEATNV
The experiment in a line: NPY2R agonism, FURA2 calcium release in transfected CHO cells. As for the experimental part:
(§1) The RLB series peptides were tested for function at receptors corresponding to the glucagon super family of receptors and NPY receptors. These receptors were transfected into either HEK293 cells or CHO cells. HEK 293 cells stably transfected with either GLP-1R or GIPR followed by an infection of adenovirus incorporating AKAR3 to indirectly follow cAMP production. CHO cells were transfected with NPY2R and a promiscuous g protein using FURA2 to follow calcium release.

In a further assay the target is T2, GIPR (Homo sapiens, UniProt P48546).
T2 construct: expressed in transfected cells; host or cells: HEK293
T2 sequence (P48546 22-466): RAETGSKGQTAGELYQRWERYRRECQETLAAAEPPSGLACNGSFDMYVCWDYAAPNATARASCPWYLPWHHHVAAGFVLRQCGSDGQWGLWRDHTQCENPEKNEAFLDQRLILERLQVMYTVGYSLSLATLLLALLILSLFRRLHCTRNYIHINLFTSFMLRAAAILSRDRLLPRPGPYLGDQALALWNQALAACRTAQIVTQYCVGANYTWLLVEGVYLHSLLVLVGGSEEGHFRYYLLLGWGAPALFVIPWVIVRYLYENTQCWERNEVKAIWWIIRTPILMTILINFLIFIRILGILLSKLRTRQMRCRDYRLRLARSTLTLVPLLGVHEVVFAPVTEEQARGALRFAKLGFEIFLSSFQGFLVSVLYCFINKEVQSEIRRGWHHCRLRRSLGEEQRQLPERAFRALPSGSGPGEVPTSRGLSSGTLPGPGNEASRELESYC
The experiment in a line: GIPR agonism, AKAR3 FRET in HEK293 cells stably transfected with GIPR. As to conditions: tested up to 1 μM. How it is done: as §1
Receptors in the glucagon receptor superfamily were tested based on the similarities of native peptide agonists.

In another assay the target is T3, GLP-1R (Homo sapiens, UniProt P43220).
T3 construct: expressed in transfected cells; host or cells: HEK293
T3 sequence (P43220 24-463, species assumed): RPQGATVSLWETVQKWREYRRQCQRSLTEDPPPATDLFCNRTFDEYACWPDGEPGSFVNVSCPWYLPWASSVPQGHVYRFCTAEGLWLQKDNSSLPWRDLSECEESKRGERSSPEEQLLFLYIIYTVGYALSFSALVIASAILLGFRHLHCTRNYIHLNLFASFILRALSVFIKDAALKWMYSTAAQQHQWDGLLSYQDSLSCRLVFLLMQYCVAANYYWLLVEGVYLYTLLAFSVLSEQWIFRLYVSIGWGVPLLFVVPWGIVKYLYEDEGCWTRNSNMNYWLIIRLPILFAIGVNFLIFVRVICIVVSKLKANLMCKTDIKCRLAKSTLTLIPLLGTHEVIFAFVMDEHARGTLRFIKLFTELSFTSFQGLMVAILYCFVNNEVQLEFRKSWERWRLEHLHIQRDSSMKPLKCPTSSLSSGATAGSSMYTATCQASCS
The experiment in a line: GLP-1R agonism, AKAR3 FRET assay in HEK-GLP-1R cells. As to conditions: for GLP-1R agonism screen: 300 nM, HEK-GLP-1R cells (FIG. 10). How it is done: as §1

“Also recorded” adds a separate entry of the source. Ends that are not written are not given here.

From US10111932B2, “Coagonists of glucagon-like peptide 1 receptor and neuropeptide Y2 receptor” (Syracuse University, priority 2015, dated 2018) come the findings set out here.

A word on the EC50: it is the concentration giving half of the maximal effect. With `CC[C@H](C)[C@H](NC(=O)[C@H](Cc1ccccc1)NC(=O)[C@H](CC(C)C)NC(=O)[C@H](CCCNC(=N)N)NC(=O)[C@@H](NC(=O)[C@H](C)NC(=O)[C@H](CCC(=O)O)NC(=O)[C@H](CCC(=O)O)NC(=O)[C@H](CCC(=O)O)NC(=O)[C@H](CCSC)NC(=O)[C@H](CCC(N)=O)NC(=O)[C@H](CCCCN)NC(=O)[C@H](CO)NC(=O)[C@H](CC(C)C)NC(=O)[C@H](CC(=O)O)NC(=O)[C@H](CO)NC(=O)[C@@H](NC(=O)[C@H](Cc1ccccc1)NC(=O)[C@@H](NC(=O)CNC(=O)[C@H](CCC(=O)O)NC(=O)CNC(=O)[C@@H](N)Cc1c[nH]cn1)[C@@H](C)O)[C@@H](C)O)C(C)C)C(=O)N[C@@H](CCC(=O)O)C(=O)N[C@@H](Cc1c[nH]c2ccccc12)C(=O)N[C@@H](CC(C)C)C(=O)N[C@@H](CCCNC(=N)N)C(=O)N[C@@H](Cc1c[nH]cn1)C(=O)N[C@@H](Cc1ccc(O)cc1)C(=O)N[C@@H](CC(C)C)C(=O)N[C@@H](CC(N)=O)C(=O)N[C@@H](CC(C)C)C(=O)N[C@H](C(=O)N[C@H](C(=O)N[C@@H](CCCNC(=N)N)C(=O)N[C@@H](CCC(N)=O)C(=O)N[C@@H](CCCNC(=N)N)C(=O)N[C@@H](Cc1ccc(O)cc1)C(N)=O)[C@@H](C)O)C(C)C` [Peptide 12], on NPY2R (300 nM (FIG. 12)), the NPY2R agonism screen entry was “full function”. For the same compound, the values for the EC50 on NPY2R (dose response) and on GLP-1R (dose response) were 59 nM and 0.253 ± 0.05 nM, respectively. Further, the GIPR agonism result on GIPR is reported as “no agonsim; also recorded: no function”. Moreover, the GLP-1R agonism screen entry at GLP-1R was “have agonism”. In addition, the GLP-1R agonism screening result at GLP-1R (peptides at 100 nM (FIG. 3)) is listed as “effective agonists”. The “Potency at the GLP-1R, comparative statement” value at GLP-1R (relative to the other dual agonists) is recorded as “significant less potent”.
As to “IKPEAPREDASPEEENQAYKEFIAYLNLVTRQRY-NH2 [Peptide 13]”, the GLP-1R agonism screen result at GLP-1R was “no function”.
